Assay results from patent US20240352053A1, “SALT AND CRYSTAL FORM OF EGFR INHIBITOR, AND COMPOSITION AND USE THEREOF” (BETTA PHARMACEUTICALS CO., LTD, priority 2021, published 2024).
pIC50: −log10 of the molar value. Read-outs that look alike come from different tables or passages of the source. Blank lines part the entries; values can stand above or below the compound they belong to.

Key:
[1] = Pharmacokinetic test, oral administration in male SD rats; assay type: in vivo, rat; conditions: plasma, 50 mg/kg, distilled water
Protocol: Male SD rats purchased from Beijing Weitonglihua Experimental Animal Technology Co Ltd. were used for oral administration PK studies. The dose was 50 mg/kg, the preparation was distilled water, and the compound concentrations corresponding to the test compounds were 5 mg/mL, ready for use. Oral administration is by oral gavage at 10 mL/kg. Blood was collected through the rat orbital venous plexus, and […] was taken at each time point into an EDTA anticoagulant tube. The blood collection time is: 15 min, 30 min, 1 h, 2 h, 4 h, 7 h, 24 h, 30 h, 48 h, centrifuge at 4000 rpm for 10 min, take the supernatant to obtain 100 μL plasma, and store it in a −80° C. refrigerator, spare. After precipitating the protein from the above plasma sample with acetonitrile, take the supernatant and mix it with water 1:1, and take 10 μL for LC-MS/MS detection.

[2] = test system: Ba/F3-Δ19del/T790M/C797S cells; conditions: 72 hours, CTG; data recorded in PCT/CN2021/075994; read-out: Ba/F3/EGFR Δ19del/T790M/C797S IC50; cited from earlier work
Ba/F3 EGFR WT cells = conditions: 72 hours, CTG; data recorded in PCT/CN2021/075994; read-out: BaF3 EGFR WT IC50; cited from earlier work
[3] = test system: human epidermal cancer cell A431 carrying EGFR WT; conditions: 72 hours, CTG; data recorded in PCT/CN2021/075994; cited from earlier work
[4] = Measurement of crystal form stability (HPLC chemical purity, XRPD); assay type: physicochemical; conditions: for Chemical purity (%) 0 days: HPLC
Protocol: The X-ray powder diffraction pattern detection equipment and method of the present invention are as shown in the X-ray powder diffraction table in the instrument and analysis method. After the test compounds are placed under different temperature, humidity and light conditions for a period of time, the purity is tested. Purity testing method: Use high-performance liquid chromatography (HPLC) to detect the chemical purity of this product. Determine according to high performance liquid chromatography (“Chinese Pharmacopoeia” 2020 edition, Part IV, General Chapter 0512). […] XRPD characterization was performed on the samples after being placed under different temperature, humidity and light conditions for a period of time.

[5] = DVS test (dynamic vapor sorption); assay type: physicochemical
Text: Take crystal form A of the compound represented by Formula III for DVS measurement, and the obtained DVS spectrum is shown in FIG. 5-2.

SMILES: COc1cc(N2CCC(N3CCN(C)CC3)CC2)c(C)cc1Nc1ncc(Br)c(Nc2ccc3nc(C4CC4)ccc3c2P(C)(C)=O)n1 [(6-((5-bromo-2-((2-methoxy-5-methyl-4-(4-(4-methylpiperazin-1-yl))piperidin-1-yl)phenyl)amino)pyrimidin-4-yl)amino)-2-cyclopropylquinolin-5-yl)dimethylphosphine oxide]
pIC50 [2]: 8.17
pIC50 (Ba/F3 EGFR WT cells): 6.82
pIC50 [3]: 5.95

SMILES: CCc1cc(Nc2ncc(Br)c(Nc3ccc4ncccc4c3P(C)(C)=O)n2)c(OC)cc1N1CCC(N2CCN(C)CC2)CC1 [Control Example 1, reference compound]
pIC50 [2]: 8.05
pIC50 (Ba/F3 EGFR WT cells): 7.40
pIC50 [3]: 6.61

SMILES: COc1cc(N2CCC(N3CCN(C)CC3)CC2)c(C)cc1Nc1ncc(Br)c(Nc2ccc3nc(C4CC4)ccc3c2P(C)(C)=O)n1.O=C(O)C[C@H](O)C(=O)O [Crystal form J of the compound represented by formula III]
Chemical purity (%) 0 days [4]: 99.59%
Chemical purity (%) 92.5% RH ([4]; placement time 10 days): 99.59%
Chemical purity (%) 4500 lx illumination ([4]; placement time 10 days): 96.05%

More lines, now with the values ahead:

AUC(0-t) ([1]; male, SD, rat, po): 27.4 µg·h/mL
Cmax ([1]; male, SD, rat, po, read-out: Cmax): 1.99 µg/mL
SMILES: COc1cc(N2CCC(N3CCN(C)CC3)CC2)c(C)cc1Nc1ncc(Br)c(Nc2ccc3nc(C4CC4)ccc3c2P(C)(C)=O)n1.O=C(O)C[C@H](O)C(=O)O

Chemical purity (%) 0 days [4]: 98.85%
Chemical purity (%) 60° C. ([4]; 60° C., placement time 13 days): 98.80%
Chemical purity (%) 92.5% RH ([4]; placement time 13 days): 98.98%
Chemical purity (%) 4500 lx illumination ([4]; placement time 13 days): 98.83%
AUClast [1]: 47.593 µg·h/mL
Cmax [1]: 2.557 µg/mL
hygroscopic weight gain ([5]; 25° C./80% RH): about 3.43%
sample weight after placement in DVS ([5]; 25° C./80% RH for 24 hours): remained basically unchanged
crystal form after placement in DVS ([5]; 25° C./80% RH, after 24 hours): did not change
crystal form before and after the DVS test ([5]; DVS, 25° C.): does not change
SMILES: COc1cc(N2CCC(N3CCN(C)CC3)CC2)c(C)cc1Nc1ncc(Br)c(Nc2ccc3nc(C4CC4)ccc3c2P(C)(C)=O)n1.O=C(O)C[C@H](O)C(=O)O [Crystal form A of the compound represented by formula III]
